# Measured values published in patent US10933032B2, “Methods for the treatment of cancer using coenzyme Q10 combination therapies” (Berg LLC, priority 2013, dated 2021).
# How the values were obtained:
# [1] = system: non-tumorigenic control cells (MCF12A); test: Reactive oxygen species (ROS) production; format: cell-based; details: 100 μM CoQ10 for 24 hours, FIG. 17
# Method: (§1) Cells were treated with 100 μM CoQ10 for 24 hours.
# (§2) Mitochondria represent a significant source of ROS which are known to participate in activation of cell death pathways.
# [2] = system: MDA-MB213 breast cancer cells; test: Reactive oxygen species (ROS) production; format: cell-based; details: 100 μM CoQ10 for 24 hours, FIG. 17
# Method: as §1, §2
# [3] = system: triple-negative breast cancer (TNBC) xenografts; test: Triple-negative breast cancer (TNBC) xenograft, survival; format: in vivo, Mice; details: FIG. 21
# Hep3B = test: Induction of early apoptosis (Bcl-2, annexin V, or caspase activation); format: cell-based; details: LIVER: Hep3B
# Method: (§3) The effects of Coenzyme Q10 treatment on a variety of oncogenic and normal cell lines were examined and compared. The sensitivity of cells to Coenzyme Q10 was assessed by monitoring induction of apoptosis. CoQ10 treatment of cells was carried out as described in detail below in the Materials and Methods. Induction of apoptosis was assessed in the treated cells by monitoring indicators of early apoptosis (e.g., Bcl-2 expression, caspase activation and by using annexin V assays) as described below. From these studies, the minimal CoQ10 dosage, e.g., concentration of CoQ10 and time of treatment, required to induce apoptosis in the panel of cell lines was determined.
# (§4) Cells were cultured in T-75 flasks with relevant medium supplemented with 10% Fetal Bovine Serum (FBS), 1% PSA (penicillin, streptomycin, amphotericin B) (Invitrogen and Cellgro) in a 37° C. incubator with 5% CO2 levels until 70-80% confluence was reached. To harvest cells for treatment, flasks were primed with 1 mL Trypsin, aspirated, trypsinized with an additional 3 mL, and incubated at 37° C. for 3-5 minutes. Cells were then neutralized with an equal volume of media and the subsequent solution was centrifuged at […] for 8 minutes. The supernatant was aspirated and the cells were resuspended with 8.5 ml of media. A mixture of 500 ul of the resuspension and 9.5 ml of […] was read twice by a coulter counter and the appropriate number of cells to be seeded into each dish was determined. Control and concentration ranging from 0-200 μM groups were examined in triplicate. From a 500 μM CoQ-10 stock solution, serial dilutions were performed to achieve desired experimental concentration in appropriate dishes. Dishes were incubated in a 37° C. incubator with 5% CO2 levels for 0-72 hours depending on cell type and experimental protocol.
# (§5) Following cell treatment incubation period was complete, protein isolation was performed. Dishes of all treatment groups were washed twice with 2 ml, and once with 1 ml of ice cold 1× Phosphate Buffered Saline (PBS). The PBS was aspirated from the dishes after the initial 2 washes only. Cells were gently scraped and collected into microcentrifuge tubes using the final volume from the third wash and centrifuged at 10,000 rpm for 10 minutes. After centrifugation, the supernatant was aspirated and the pellet was lysed with 50 uL of lysis buffer (1 uL of protease and phosphotase inhibitor for every 100 uL of lysis buffer). Samples were then frozen overnight at −20° C.
# (§6) After the cell treatment incubation period was complete, protein isolation was performed. Flasks of all treatment groups were washed twice with 5 mL, and once with 3 mL of ice cold 1×PBS. The PBS was aspirated from the flasks after the first 2 washes only. Cells were gently scraped and collected into 15 mL centrifuge tubes using the final volume from the third wash and centrifuged for at 10,000 rpm for 10 minutes. After centrifugation, the supernatant was aspirated and the pellet was lysed with an appropriate amount of lysis buffer (1 uL of protease and phosphotase inhibitor for every 100 uL of lysis buffer). Lysis buffer volume was dependent on pellet size. Samples were transferred in microcentrifuge tubes and frozen overnight at −20° C.
# (§7) Samples were thawed at […] and sonicated to ensure homogenization the day following protein isolation. Protein quantification was performed using the micro BCA protein assay kit (Pierce). To prepare samples for Immuno-blotting, a 1:19 solution of betamercaptoethanol (Sigma) to sample buffer (Bio-Rad) was prepared. Samples were diluted 1:1 with the betamercaptoethanol-sample buffer solution, boiled at 95° C. for 5 minutes, and frozen overnight at −20° C.
# (§8) The volume of sample to load per well was determined using the raw mean concentration of protein obtained from the BCA protein assay. Approximately 30-60 μg of protein were loaded for each treatment time point. […]
# Melanoma (Skmel 28) = test: as above; format: cell-based; details: SKIN: Melanoma (Skmel 28)
# Method: as §3, §4, §5, §6, §7, §8
# ZR-75 = test: as above; format: cell-based; details: BREAST: ZR-75
# Method: as §3, §4, §5, §6, §7, §8
# [4] = system: Aortic smooth muscle (HASMC); test: as above; format: cell-based; details: Heart: Aortic smooth muscle (HASMC)
# Method: as §3, §4, §5, §6, §7, §8
# MCF-7 = test: as above; format: cell-based; details: BREAST: MCF-7
# Method: as §3, §4, §5, §6, §7, §8
# Fibroblasts (nFib) = test: as above; format: cell-based; details: SKIN: Fibroblasts (nFib)
# Method: as §3, §4, §5, §6, §7, §8
# PaCa2 = test: as above; format: cell-based; details: PANCREAS: PaCa2
# Method: as §3, §4, §5, §6, §7, §8
# Melanocytes (Hema, LP) = test: as above; format: cell-based; details: SKIN: Melanocytes (Hema, LP)
# Method: as §3, §4, §5, §6, §7, §8
# Melanoma (Skmel 2) = test: as above; format: cell-based; details: SKIN: Melanoma (Skmel 2)
# Method: as §3, §4, §5, §6, §7, §8
# [5] = system: SCC, Squamous cell carcinoma; test: as above; format: cell-based; details: SKIN: SCC
# Method: as §3, §4, §5, §6, §7, §8
# [6] = system: MIAPaCa2 pancreatic cancer cells; test: Proliferation assay (CFSE, flow cytometry); format: cell-based, human; details: MIAPaca-2; CoQ10 with gemcitabine; FIG. 13
# Method: FIG. 13 is a graph showing results from proliferation assay in which MIAPaCa2 pancreatic cancer cells were treated with gemcitabine alone or in combination with CoQ10 prior to assessment of proliferation via flow cytometric analysis using the cell tracer dye CFSE which stains live cells. Values are normalized to the number of cells treated with neither CoQ10 nor the chemotherapeutic agent.
# Without being bound by mechanism, it is proposed that CoQ10 effectuates a metabolic switch from glycolysis towards enhanced mitochondrial oxidative phosphorylation resulting in the recapitulation of apoptosis in cancer. The effects of CoQ10 were investigated to determine if pretreatment with CoQ10 results in mitochondrial priming, thereby augmenting the cytotoxic effect of standard of care chemotherapeutic agents. MIAPaCa-2 human pancreatic cancer cells were either (a) pretreated with CoQ10 prior to treatment with gemcitabine or (b) co-treated with CoQ10 and gemcitabine.
smiles,measurement,setting,value
"COC1=C(OC)C(=O)C(C/C=C(\C)CC/C=C(\C)CC/C=C(\C)CC/C=C(\C)CC/C=C(\C)CC/C=C(\C)CC/C=C(\C)CC/C=C(\C)CC/C=C(\C)CCC=C(C)C)=C(C)C1=O [CoQ10, Coenzyme Q10]",ROS production,[1],increased ROS production
same,ROS production,[2],increased ROS production
same,"Survival, CoQ10 in combination with the TAC regimen","[3]; 75 mg/kg CoQ10, TAC: 5 mg/kg docetaxel, 1 mg/mg doxorubicin, 35 mg/kg cyclophosphamide every three weeks for six cycles",significantly improved survival
same,"Survival, CoQ10 alone",[3]; 75 mg/kg body weight CoQ10 (BPM 31510),significantly improved survival
same,"Indication of Early apoptosis (Bcl-2, annexin V, or caspase activation)",Hep3B,Very Strong
same,"Minimal CoQ10 concentration required for induction of early apoptosis, Concentration",Hep3B,50 µM
same,"Minimal treatment time required for induction of early apoptosis, Time",Hep3B,24 h
same,"Indication of Early apoptosis (Bcl-2, annexin V, or caspase activation)",Melanoma (Skmel 28),Strong
same,"Minimal CoQ10 concentration required for induction of early apoptosis, Concentration",Melanoma (Skmel 28),20 µM
same,"Minimal treatment time required for induction of early apoptosis, Time",Melanoma (Skmel 28),24 h
same,"Indication of Early apoptosis (Bcl-2, annexin V, or caspase activation)",ZR-75,Slight
same,"Minimal CoQ10 concentration required for induction of early apoptosis, Concentration",ZR-75,200 µM
same,"Minimal treatment time required for induction of early apoptosis, Time",ZR-75,72 h
same,"Indication of Early apoptosis (Bcl-2, annexin V, or caspase activation)",[4],None
same,"Indication of Early apoptosis (Bcl-2, annexin V, or caspase activation)",MCF-7,Strong
same,"Minimal CoQ10 concentration required for induction of early apoptosis, Concentration",MCF-7,50 µM
same,"Minimal treatment time required for induction of early apoptosis, Time",MCF-7,48 h
same,"Indication of Early apoptosis (Bcl-2, annexin V, or caspase activation)",Fibroblasts (nFib),None
same,"Indication of Early apoptosis (Bcl-2, annexin V, or caspase activation)",PaCa2,Very Strong
same,"Minimal CoQ10 concentration required for induction of early apoptosis, Concentration",PaCa2,25 µM
same,"Minimal treatment time required for induction of early apoptosis, Time",PaCa2,24 h
same,"Indication of Early apoptosis (Bcl-2, annexin V, or caspase activation)","Melanocytes (Hema, LP)",None
same,"Indication of Early apoptosis (Bcl-2, annexin V, or caspase activation)",Melanoma (Skmel 2),Very Strong
same,"Minimal CoQ10 concentration required for induction of early apoptosis, Concentration",Melanoma (Skmel 2),25 µM
same,"Minimal treatment time required for induction of early apoptosis, Time",Melanoma (Skmel 2),24 h
same,"Indication of Early apoptosis (Bcl-2, annexin V, or caspase activation)",[5],Very Strong
same,"Minimal CoQ10 concentration required for induction of early apoptosis, Concentration",[5],25 µM
same,"Minimal treatment time required for induction of early apoptosis, Time",[5],24 h
same,Proliferation vs gemcitabine alone,[6],decreased proliferation
